The values that follow come from patent US7772198B2, “CFTR channel modulators” (Centre National de la Recherche Scientifique, priority 2003, dated 2010).

Like-named read-outs stand apart in the source and are kept apart here.

Series [1] can be described thus: pKa evaluation in aqueous solution. In kind it is physicochemical. Here is the method: As an example, the pKa of this compound was evaluated at 4. This means that in an aqueous solution with a pH of 7, this compound is mainly in zwitterionic form, as in the case of highly diluted solutions such as those used for biological tests.
The target in series [2] is T1, wild-type CFTR receptor (CHO-WT cells) (Homo sapiens, UniProt P13569).
T1 construct: expressed in transfected cells; host or cells: CHO (Chinese Hamster Ovary) cells, stably transfected
T1 sequence (P13569 whole entry): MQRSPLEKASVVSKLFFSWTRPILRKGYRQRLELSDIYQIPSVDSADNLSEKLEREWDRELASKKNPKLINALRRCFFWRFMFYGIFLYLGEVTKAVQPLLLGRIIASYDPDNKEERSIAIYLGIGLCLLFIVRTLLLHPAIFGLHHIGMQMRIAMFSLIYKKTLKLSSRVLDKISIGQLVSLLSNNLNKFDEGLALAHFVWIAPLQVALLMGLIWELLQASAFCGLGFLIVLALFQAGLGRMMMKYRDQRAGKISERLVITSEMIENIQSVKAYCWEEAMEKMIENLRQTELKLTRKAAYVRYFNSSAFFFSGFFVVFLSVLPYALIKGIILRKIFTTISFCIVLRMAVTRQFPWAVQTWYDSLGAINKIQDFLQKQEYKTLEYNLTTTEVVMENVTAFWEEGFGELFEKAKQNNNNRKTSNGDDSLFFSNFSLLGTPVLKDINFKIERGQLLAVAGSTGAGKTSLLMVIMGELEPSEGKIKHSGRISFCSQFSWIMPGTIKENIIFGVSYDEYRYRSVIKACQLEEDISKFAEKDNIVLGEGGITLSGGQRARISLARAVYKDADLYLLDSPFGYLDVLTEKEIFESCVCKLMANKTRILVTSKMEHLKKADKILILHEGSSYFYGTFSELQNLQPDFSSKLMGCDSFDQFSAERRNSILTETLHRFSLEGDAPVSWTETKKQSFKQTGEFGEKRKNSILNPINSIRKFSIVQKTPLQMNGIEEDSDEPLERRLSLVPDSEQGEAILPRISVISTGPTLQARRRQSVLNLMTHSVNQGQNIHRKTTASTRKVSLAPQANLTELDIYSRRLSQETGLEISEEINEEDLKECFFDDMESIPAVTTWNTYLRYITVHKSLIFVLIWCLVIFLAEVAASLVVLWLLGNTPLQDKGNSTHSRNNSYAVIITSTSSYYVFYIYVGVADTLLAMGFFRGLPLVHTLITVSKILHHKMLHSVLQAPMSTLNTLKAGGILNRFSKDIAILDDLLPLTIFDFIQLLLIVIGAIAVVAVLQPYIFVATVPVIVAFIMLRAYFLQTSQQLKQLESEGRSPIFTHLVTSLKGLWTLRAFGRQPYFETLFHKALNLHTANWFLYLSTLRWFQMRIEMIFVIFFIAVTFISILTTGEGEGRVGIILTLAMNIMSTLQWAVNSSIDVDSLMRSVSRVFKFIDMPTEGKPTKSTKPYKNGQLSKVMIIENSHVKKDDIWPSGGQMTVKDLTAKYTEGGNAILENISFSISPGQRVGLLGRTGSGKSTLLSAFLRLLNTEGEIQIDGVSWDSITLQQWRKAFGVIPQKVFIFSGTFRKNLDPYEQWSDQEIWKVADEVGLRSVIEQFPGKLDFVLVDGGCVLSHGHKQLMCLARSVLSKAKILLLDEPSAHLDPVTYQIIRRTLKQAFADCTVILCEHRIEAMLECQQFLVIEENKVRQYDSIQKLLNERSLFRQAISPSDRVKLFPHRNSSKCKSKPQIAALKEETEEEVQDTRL
The series is described as follows: 125I iodide efflux, CHO cells overexpressing wild-type CFTR (CHO-WT). In kind it is cell-based. Particulars: for IC50: 5 μM Fsk; for Effect: + activator, − inhibitor, compound 1 μM, 100% = activation with 1 μM forskolin; for EC50: activators, 1 μM forskolin; for effect on wild-type receptors: summary of Table II.

Series [3] deals with T2, G551D-CFTR (CHO-G551D cells) (Homo sapiens, UniProt P13569, G551D).
T2 construct: expressed in transfected cells; host or cells: CHO (Chinese Hamster Ovary) cells, stably transfected
T2 sequence (P13569 whole entry G551D): as the sequence (P13569 whole entry) above, with G551D counted along it
The series is described as follows: 125I iodide efflux, CHO cells expressing G551D mutated CFTR (CHO-G551D). The series is classed as cell-based. Particulars: for IC50: 10 μM Fsk + 30 μM genistein; for effect on G551D mutated receptors: summary of Table II.

The target in series [4] is wild-type CFTR protein (Calu-3 cells) (Homo sapiens, UniProt P13569). The series is described as follows: iodide efflux, Calu-3 human lung cells naturally expressing wild-type CFTR.
wild-type CFTR protein (Calu-3 cells), sequence (P13569 whole entry): as the sequence (P13569 whole entry) above
In series [5] the target is mutated F508-CFTR (CF15 cells) (Homo sapiens, UniProt P13569, DEL508-508). The series is described as follows: iodide efflux, CF15 human nasal epithelial cells expressing mutated F508-CFTR. Particulars: results not shown.
mutated F508-CFTR (CF15 cells), sequence (P13569 with tags, fused parts or gaps DEL508-508): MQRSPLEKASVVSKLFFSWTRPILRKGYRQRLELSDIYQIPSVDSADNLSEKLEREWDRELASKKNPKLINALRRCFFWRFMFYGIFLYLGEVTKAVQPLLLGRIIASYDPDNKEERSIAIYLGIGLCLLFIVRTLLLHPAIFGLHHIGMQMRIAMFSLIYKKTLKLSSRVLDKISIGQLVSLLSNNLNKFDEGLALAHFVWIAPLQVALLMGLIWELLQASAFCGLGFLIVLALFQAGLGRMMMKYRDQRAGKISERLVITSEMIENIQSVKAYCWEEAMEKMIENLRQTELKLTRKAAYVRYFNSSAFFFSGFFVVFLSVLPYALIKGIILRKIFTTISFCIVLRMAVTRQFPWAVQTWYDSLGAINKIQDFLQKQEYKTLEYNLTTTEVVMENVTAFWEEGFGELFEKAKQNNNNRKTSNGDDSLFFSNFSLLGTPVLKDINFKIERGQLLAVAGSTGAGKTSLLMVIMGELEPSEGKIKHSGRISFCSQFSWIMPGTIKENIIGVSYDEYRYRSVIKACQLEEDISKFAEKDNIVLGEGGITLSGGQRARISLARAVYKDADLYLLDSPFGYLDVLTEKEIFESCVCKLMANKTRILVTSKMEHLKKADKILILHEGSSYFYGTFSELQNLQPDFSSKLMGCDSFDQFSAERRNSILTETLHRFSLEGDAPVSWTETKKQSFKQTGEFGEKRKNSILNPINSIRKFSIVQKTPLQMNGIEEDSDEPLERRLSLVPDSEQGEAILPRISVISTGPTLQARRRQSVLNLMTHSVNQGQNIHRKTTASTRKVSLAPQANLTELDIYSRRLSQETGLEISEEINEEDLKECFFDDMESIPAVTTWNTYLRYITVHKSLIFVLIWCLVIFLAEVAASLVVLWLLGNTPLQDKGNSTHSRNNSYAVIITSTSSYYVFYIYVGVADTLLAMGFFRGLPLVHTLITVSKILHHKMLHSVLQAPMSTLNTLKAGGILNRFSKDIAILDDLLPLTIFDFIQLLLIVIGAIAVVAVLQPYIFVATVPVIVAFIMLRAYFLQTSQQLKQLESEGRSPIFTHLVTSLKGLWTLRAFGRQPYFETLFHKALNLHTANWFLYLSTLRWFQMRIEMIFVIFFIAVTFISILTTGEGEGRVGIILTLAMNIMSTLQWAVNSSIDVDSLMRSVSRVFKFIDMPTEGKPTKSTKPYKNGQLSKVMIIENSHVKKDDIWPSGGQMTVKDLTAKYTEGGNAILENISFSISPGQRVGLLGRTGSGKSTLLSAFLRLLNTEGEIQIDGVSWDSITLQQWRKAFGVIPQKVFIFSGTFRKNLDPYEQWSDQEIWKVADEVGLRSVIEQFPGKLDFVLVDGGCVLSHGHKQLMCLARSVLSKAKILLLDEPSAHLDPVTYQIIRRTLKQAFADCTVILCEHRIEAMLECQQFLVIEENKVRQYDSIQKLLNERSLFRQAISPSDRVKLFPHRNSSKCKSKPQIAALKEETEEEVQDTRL
Series [6] has as its system diarrhoea caused by the cholera toxin. Particulars: mouse, in vivo; cited from earlier work.
The target in another series is CFTR channel (Homo sapiens, UniProt P13569). Particulars: read-out: IC50, concentration to inhibit 50% of the activity of the CFTR channel; cited from earlier work.
CFTR channel, sequence (P13569 whole entry): as the sequence (P13569 whole entry) above
A further series deals with mice. Particulars: at 7 days, 10 mg/kg injection; cited from earlier work.
Where [7] appears, read: 1 μM compound added to 1 μM Fsk.
Setting [8] is: 1 μM compound added to 10 μM Fsk + 30 μM genistein.
Where [9] appears, read: 1 μM compound added to 5 μM Fsk.

For orientation: pKa means the pH at which an ionisable group is half protonated. Consider `CC1(C(=O)O)N=C2C=CC=CN2C(C)(O)C1O` (centres unmarked), for which the pKa is around 2 in series [1] (aqueous solution, aqueous solution at 25° C., read-out: pKa, carboxylic acid function) and around 10 in series [1] (aqueous solution, aqueous solution at 25° C., read-out: pKa, imine function).

In the case of `CC1(C(=O)O)N=C2C(O)=CC=CN2C(C)(O)C1O` (mixture of isomers) [Compound 3, 2-amino-3-hydroxypyridine Adducts], the IC50 in series [2] is 4000 nM; in series [3], 36000 nM; in series [4], 11000 nM.

Usually EC50 stands for the concentration needed to bring the measured effect to its halfway point. A high value points to lower potency in that assay. Take `CCCn1cnc2c1N=CN1C2=NC(C)(C(=O)O)C(O)C1(C)O` (mixture of isomers) [Compound 9, 9-propyladenine Adducts]: the “effect on activation of wild-type CFTR (CHO-WT)” value (“effect on activation … (CHO-WT)” below) in series [2] (setting [7]) was “activation”. For the same compound, in series [2] (setting [8]), the “effect on activation … (CHO-WT)” value is listed as “activation”. Besides, in series [2], the Effect result was “+ (In case of a significant increase, the compound was listed as an activator)”; the EC50 is 2000 nM; the “effect on wild-type receptors” value is recorded as “activator effect”. Besides, in series [3] (setting [7]), the “effect on activation of mutated CFTR (CHO-G551D)” value (shortened to “effect … (CHO-G551D)”) is recorded as “no effect”. Moreover, in series [3] (setting [8]), the “effect … (CHO-G551D)” value was “activation”. In addition, the “effect on G551D mutated receptors” value in series [3] is reported as “unable to activate”. The “activation of ΔF508 mutated receptor” value in series [5] is reported as “can activate”.

On to `C=CCn1cnc2c1N=CN1C2=NC(C)(C(=O)O)C(O)C1(C)O` (mixture of isomers) [Compound 10, 9-allyladenine Adducts], for which, in series [2], the Effect entry is given as “+ (In case of a significant increase, the compound was listed as an activator)” and a half-maximal response (EC50) required 7500 nM.

In series [2], `CCC1(C(=O)O)N=C2C=CC=CN2C(O)(CC)C1O` (mixture of isomers) [Compound 11] returned an IC50 of 18000 nM.

Take `CCCn1cnc2c1N=CN1C2=N[C@](C)(C(=O)O)[C@@H](O)[C@@]1(C)O` (racemic) [Compound 9a]: in series [2], the Effect entry is reported as “+ (In case of a significant increase, the compound was listed as an activator)” and the EC50 amounted to 2000 nM. The compound further showed an EC50 in series [4] of 2000 nM.

With `CCCn1cnc2c1N=CN1C2=N[C@](C)(C(=O)O)[C@H](O)[C@@]1(C)O` (racemic) [Compound 9b], in series [2], the Effect result is “+ (In case of a significant increase, the compound was listed as an activator)” and the EC50 stood at 3000 nM.

`C[C@]1(C(=O)O)N=C2c3nc[nH]c3N=CN2[C@](C)(O)[C@H]1O` (single isomer, unassigned) [Compound 5a] displayed an IC50 in series [2] of 10000 nM.

With `C[C@]1(C(=O)O)N=C2c3nc[nH]c3N=CN2[C@](C)(O)[C@H]1O` (single isomer, unassigned) [Compound 5b], in series [2], the IC50 worked out at 3000 nM.

As for `CC1(C(=O)O)N=C2c3ncn([C@H]4CC(O)[C@@H](CO)O4)c3N=CN2C(C)(O)C1O` (stereo in doubt) [Compound 1, 2′-deoxyadenosine Adducts], the “effect on activation … (CHO-WT)” value in series [2] (setting [7]), in series [2] (setting [9]) and in series [2] (setting [8]) was “inhibition” in each case. The IC50 in series [2] turned out to be 0.071 nM; in series [3], 43 nM; in series [4] it was 0.093 nM. The “effect on wild-type receptors” value in series [2] was “effectively antagonises the action of the forskolin and genistein activators”. For the same compound, the “effect … (CHO-G551D)” value in series [3] (setting [7]) is reported as “no effect”; in series [3] (setting [9]) it was “no effect”; in series [3] (setting [8]), “inhibition”. For the same compound, the “effect on G551D mutated receptors” value in series [3] was “effectively antagonises the action of the forskolin and genistein activators”.

Compound `Cc1nc2cccc[n+]2c(C)c1O` [6 (chlorhydrate)] came in with an IC50 in series [2] of 7 nM.

In the case of `C[N+](C)(C)CC(=O)O` [Betaine, reference compound], the IC50 in series [2] is 96000 nM.

In the case of `O=C(O)c1ccc(/C=C2\SC(=S)N(c3cccc(C(F)(F)F)c3)C2=O)cc1` [CFTRinh-172], the “reduction of diarrhoea caused by the cholera toxin” value in series [6] is reported as “more than 90%”. Also, on CFTR channel, the IC50 is 200 nM. The toxicity in mice entry in the series with mice is on record as “absence of toxicity”.

Consider `CCCN1C=CC2=NC(C)(C(=O)O)C(O)C(C)(O)N2C1=O` (centres unmarked) [Compound 2, 1-propylcytosine Adducts], for which the IC50 amounted to 2 nM in series [2], 154 nM in series [3] and 2 nM in series [4].

Take `CCCN1C=CC2=N[C@](C)(C(=O)O)[C@@H](O)[C@@](C)(O)N2C1=O` [Compound 2a]: the IC50 in series [2] was 2 nM.

In the case of `CCCN1C=CC2=N[C@](C)(C(=O)O)[C@H](O)[C@@](C)(O)N2C1=O` [Compound 2b], in series [2], the IC50 turned out to be 1.5 nM.

With `CC1(C(=O)O)N=C2c3nc[nH]c3N=CN2C(C)(O)C1O` (centres unmarked) [Compound 5, Adenine Adducts], the figures for the IC50 in series [2], in series [3] and in series [4] were 6000 nM, 110000 nM and 12000 nM, respectively.

Consider `Cc1nc2cccc[n+]2c(C)c1[O-]` [Compound 6, 2-aminopyridine Derivative], for which the IC50 in series [2] worked out at 5 nM; in series [3] it was 90 nM; in series [4], 5 nM. The pKa in series [1] (read-out: pKa) was found to be 4.

With `C[n+]1cn([C@@H]2O[C@H](CO)[C@@H](O)[C@H]2O)c2nc(N)nc([O-])c21` [Compound 8, 7-methylguanosine], the values for the IC50 in series [2], in series [3] and in series [4] were 3500 nM, 15000 nM and 11000 nM, respectively.

For the compound `O=C(O)c1nn(Cc2ccc(Cl)cc2Cl)c2ccccc12` [lonidamine], on CFTR channel, the IC50 was 58000 nM.
